Laboratory results reported in patent US20240287463A1, “INDUCIBLE TISSUE CONSTRUCTS AND USES THEREOF” (Massachusetts Institute of Technology, priority 2020, published 2024).

Columns and labels:
HUVECs = experiment: vascular perfusion in tri-culture microfluidic devices; type: cell-based, human; details: 50 nM CID after 5 days of tri-culture
Excerpt: Given that fibroblasts are only transiently required for supporting the formation of a functional vasculature, it was investigated whether CAMEO could be used in the vascularization of tissue constructs with organ-specific parenchymal cells without negatively affecting the function of the parenchymal cells. To investigate this, a tri-culture system of HUVECs, iCasp9-HDFs, and primary human hepatocytes was employed in the microfluidic device. Using the methods described in Example 5, a solution of HUVECs (3 million cells/mL), iCasp-9 HDFs (total of 6 million cells/mL), hepatic aggregates (0.36 million aggregates/mL with about 150 hepatocytes per aggregate), fibrinogen (2.5 mg/mL), thrombin (1 U/mL) was made in a 1:1 mixed media of EGM-2 and hepatocyte maintenance media. After 5 days of tri-culture, the devices were treated with 50 nM CID to remove the iCasp9-HDFs, or with vehicle control. All samples were fixed at day 7 to evaluate vascular perfusion (FIG. 8A). […] To evaluate whether the hepatocytes remained functional after CID treatment, levels of albumin and urea, markers for hepatic protein synthesis function and nitrogen metabolism, respectively, were measured in the media.

iCasp9-GFP fibroblasts = experiment: viability of hydrogel-encapsulated monoculture fibroblasts; type: cell-based
iCasp9-GFP J2s [1] = experiment: fibroblast deletion from 3D spheroid-laden hydrogels; type: cell-based
Excerpt: Previous work identified that phenotypic stability and longevity of primary hepatocytes cultured as 3D microtissues were transiently supported by pre-aggregation to increase homotypic cell-cell interactions, and were further enhanced upon inclusion of J2 fibroblasts (C. Y. Li et al. (2014) Tissue Eng. Part A 20, 2200). Thus, iCasp9-GFP J2 fibroblasts were incorporated into these 3D hepatic ensembles, which were fabricated by plating primary human hepatocytes and fibroblasts in microwells in order to facilitate physical cell-cell contacts, as previously described (K. Stevens et al. (2013) Nat. Commun. 4, 1847; K. R. Stevens et al. (2017) Sci. Transl. Med. 9, eaaah5505). […] Hepatic spheroids (about 150 hepatocytes per spheroid, ˜100 μm diameter) were imaged and analyzed to quantify the extent of spheroid compaction. […] Resulting morphologies were traced and measured for circularity. […]
To probe the dependence of hepatocyte phenotypic stability on fibroblast co-culture in 3D, fibroblasts were deleted from spheroid-laden hydrogel cultures using CAMEO after 1 day of hepatocyte-fibroblast co-culture. Fibroblasts were robustly removed from 3D co-cultures as described in the above Examples, and detected by immunofluorescence imaging (FIG. 3I). […]

iCasp9-GFP J2s [2] = experiment: Annexin V / SYTOX apoptosis flow cytometry; type: cell-based; details: within the first hour after CID treatment
Excerpt: Inducible caspase-9 (iCasp9), which is activated by treatment with a small molecule chemical inducer of dimerization (CID; also known as rapalog, an analog of rapamycin) and leads to subsequent cell death through the intrinsic apoptosis pathway was utilized (FIG. 1A). The safety and efficacy of the iCasp9 transgene and CID have previously been shown in vitro and in vivo in animals and humans (A. Di Stasi, et al. (2011) dx.doi.org/10.1056/NEJMoa1106152; T. Gargett and M. P. Brown (2014) Front. Pharmacol. 5; K. C. Straathof, et al. (2005) Blood 105, 4247, each of which is herein incorporated by this reference). To generate inducible cells, 3T3-J2 fibroblasts (‘J2’) were transduced with lentivirus with a bidirectional expression cassette encoding iCasp9 and GFP genes (#15567 pMSCV-F-del Casp9.IRES.GFP; cloned to a lentivirus plasmid backbone with an SFFV promoter). FACS was used to enrich the infected population for the 15% highest-expression GFP+ cells. […]
After iCasp9-GFP J2 fibroblasts were exposed to CID, iCasp9 dimers were detected by staining with a caspase-9 antibody (FIG. 1C). […] To confirm that CID-triggered caspase-9 activation led to apoptosis, unfixed cells were stained with Annexin V, which binds to an early indicator of apoptosis, and SYTOX, a general marker of cell death, and analyzed by flow cytometry.

Q: For `CC[C@H](C(=O)N1CCCC[C@H]1C(=O)O[C@H](CCc1ccc(OC)c(OC)c1)c1cccc(OCC(=O)NCC(CNC(=O)COc2cccc([C@@H](CCc3ccc(OC)c(OC)c3)OC(=O)[C@@H]3CCCCN3C(=O)[C@@H](CC)c3cc(OC)c(OC)c(OC)c3)c2)CN(C)C)c1)c1cc(OC)c(OC)c(OC)c1` [CID, AP20187], which “vascular perfusion at day 7” value (HUVECs) is on record?
A: The value was “formed perfusable vasculature”.

Q: And the fibroblast viability (iCasp9-GFP fibroblasts; hydrogel-encapsulated, after 6 hours of CID)?
A: Its fibroblast viability is “undetectable”.

Q: What about the fibroblast regrowth (iCasp9-GFP fibroblasts; over the course of 21 days after CID) of the same compound?
A: Its fibroblast regrowth is “did not regrow”.

Q: What about the iCasp9-GFP staining (iCasp9-GFP J2s [1]; 50 nM CID at day 1, imaged starting at day 2) of the same compound?
A: Its iCasp9-GFP staining is “negligible”.

Q: And the “deletion of iCasp9-GFP J2s throughout the hydrogel” value (iCasp9-GFP J2s [1]; spheroid-laden hydrogel cultures, data not shown)?
A: The value was “robust and specific deletion”.

Q: And the “proportion of iCasp9-GFP J2s undergoing apoptosis” value (iCasp9-GFP J2s [2])?
A: The value was “increased in a time-dependent manner”.
